Results: ChEMBL document CHEMBL1201862, “PubChem BioAssay data set” (2004)
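Following 48 hours of exposure in 96-well plates, responses at five concentrations were used to interpolate endpoints linearly. At the GI50, growth is halved.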 Active and inactive are the calls of the source. Cut-off read from the data, not from the text of the source: active = GI50 up to about 1.1 µM and inactive = higher.

How the values were obtained:
Test in all cases: inhibition of tumour cell growth, NCI panel, 48 h
Malme-3M = test system: Malme-3M
HCT-116 = test system: HCT-116
NCI-H460 = test system: NCI-H460
KM12 = test system: KM12
OVCAR-3 = test system: OVCAR-3
MCF7 = test system: MCF7
T47D = test system: T47D
LOX IMVI = test system: LOX IMVI
BT-549 = test system: BT-549
SK-OV-3 = test system: SK-OV-3
786-0 = test system: 786-0
TK-10 = test system: TK-10
U-251 = test system: U-251
HCT-15 = test system: HCT-15
K562 = test system: K562
SN12C = test system: SN12C
HT-29 = test system: HT-29
SNB-75 = test system: SNB-75
DU-145 = test system: DU-145
SF-539 = test system: SF-539

Row | SMILES | GI50 (Malme-3M) | GI50 (HCT-116) | GI50 (NCI-H460) | GI50 (KM12) | GI50 (OVCAR-3) | GI50 (MCF7) | GI50 (T47D) | GI50 (LOX IMVI) | GI50 (BT-549) | GI50 (SK-OV-3) | GI50 (786-0) | GI50 (TK-10) | GI50 (U-251) | GI50 (HCT-15) | GI50 (K562) | GI50 (SN12C) | GI50 (HT-29) | GI50 (SNB-75) | GI50 (DU-145) | GI50 (SF-539)
1 | Clc1ccc2c(c1)CC1C[N+]3=C(CCCC3)C1=C2 (stereo unspecified) | 36.6 µM (inactive) | > 100 µM (inactive) | 40.1 µM (inactive) | 57.8 µM (inactive) | 34.4 µM (inactive) | 61.1 µM (inactive) | 51.3 µM (inactive) | > 100 µM (inactive) | 55.5 µM (inactive) | > 100 µM (inactive) | > 100 µM (inactive) | 72.8 µM (inactive) | 34 µM (inactive) | > 100 µM | 75.3 µM (inactive) | > 100 µM (inactive) | 36.6 µM (inactive) | 52 µM (inactive) | > 100 µM (inactive) | 
2 | CC1=C(C)C2(C#N)C(=O)N3C(=NC(c4ccco4)NC3c3ccco3)C2(C#N)C(c2ccco2)N1 (stereo unspecified) | > 100 µM (inactive) | > 100 µM (inactive) | > 100 µM (inactive) | > 100 µM (inactive) |  | > 100 µM (inactive) | > 100 µM (inactive) | > 100 µM (inactive) | > 100 µM (inactive) | > 100 µM (inactive) | > 100 µM (inactive) | > 100 µM (inactive) | > 100 µM (inactive) | > 100 µM |  | > 100 µM (inactive) | > 100 µM (inactive) |  | > 100 µM (inactive) | 
3 | Nc1c([N+](=O)[O-])cc2c3c(cccc13)CC2 |  | 39.1 µM (inactive) | 54.1 µM (inactive) | > 100 µM (inactive) | > 100 µM (inactive) |  | 30.1 µM (inactive) | 65.2 µM (inactive) | 74.6 µM (inactive) | 51.2 µM (inactive) | 57.4 µM (inactive) | 42.8 µM (inactive) | 91 µM (inactive) | 65.9 µM | > 100 µM (inactive) | 62.8 µM (inactive) | 98.9 µM (inactive) | > 100 µM (inactive) | 46 µM (inactive) | 31.5 µM (inactive)
4 | Nc1ncc(/C=N/O)c(NCC2(CO)CC(CCc3ccccc3)C2)n1 (stereo unspecified) | 12.1 µM (inactive) | 0.0569 µM (active) | 5.74 µM (inactive) | 14.3 µM (inactive) | 11 µM (inactive) | 4.58 µM (inactive) | 0.0111 µM (active) | 2.39 µM (inactive) | > 10 µM (inactive) |  | 15.2 µM (inactive) | > 10 µM (inactive) | 12 µM (inactive) | 13.1 µM | 0.144 µM (active) | 17 µM (inactive) | 2.67 µM (inactive) | 14.5 µM (inactive) | 5.41 µM (inactive) | 13.8 µM (inactive)
5 | COc1cc(C)cc(C(=O)/C=C/c2ccccc2)c1O |  | 17.7 µM (inactive) | 20.2 µM (inactive) | 18.5 µM (inactive) | 16.5 µM (inactive) | 12.1 µM (inactive) | 11.1 µM (inactive) | 17.4 µM (inactive) | 17.4 µM (inactive) | 29.2 µM (inactive) | 17.8 µM (inactive) | 18.6 µM (inactive) | 17.2 µM (inactive) | 18.1 µM | 40.6 µM (inactive) | 16.9 µM (inactive) | 18.3 µM (inactive) | 24.5 µM (inactive) | 14.1 µM (inactive) | 
6 | CN(C)C(=O)Oc1ccc(C(=S)Nc2ccccc2)cc1Br | 33.6 µM (inactive) | 34 µM (inactive) | 23.1 µM (inactive) | 21.7 µM (inactive) | 30.1 µM (inactive) | 25.8 µM (inactive) | 25 µM (inactive) | 20.9 µM (inactive) | 31.3 µM (inactive) | > 100 µM (inactive) | 62.8 µM (inactive) |  | 83 µM (inactive) | 28.9 µM | 18.7 µM (inactive) |  | 21.4 µM (inactive) |  | 54.5 µM (inactive) | 72.3 µM (inactive)
7 | O=S(=O)(O)c1ccc(O)c(/N=N/c2c(O)ccc3ccccc23)c1 |  | > 100 µM (inactive) |  | > 100 µM (inactive) | 34.6 µM (inactive) |  | > 100 µM (inactive) | > 100 µM (inactive) | > 100 µM (inactive) | > 100 µM (inactive) | > 100 µM (inactive) | > 100 µM (inactive) | 73.6 µM (inactive) | > 100 µM | > 100 µM (inactive) | > 100 µM (inactive) | > 100 µM (inactive) | > 100 µM (inactive) | > 100 µM (inactive) | 
8 | O=C(O)CC(Cc1ccccc1Cl)C(=O)O (stereo unspecified) | > 100 µM (inactive) | > 100 µM (inactive) | > 100 µM (inactive) | > 100 µM (inactive) | > 100 µM (inactive) | > 100 µM (inactive) | > 100 µM (inactive) | > 100 µM (inactive) | > 100 µM (inactive) | > 100 µM (inactive) | > 100 µM (inactive) | > 100 µM (inactive) | > 100 µM (inactive) | > 100 µM | > 100 µM (inactive) | > 100 µM (inactive) | > 100 µM (inactive) |  | > 100 µM (inactive) | 
